We go through four molecules from ChEMBL document CHEMBL6096718, “Discovery of Rezatapopt (PC14586), a First-in-Class, Small-Molecule Reactivator of p53 Y220C Mutant in Development” (ACS Med Chem Lett, 2025).

This assay deals with Cellular tumor antigen p53 (Homo sapiens), P04637 [Y220C]. The experiment in a line: Binding affinity to recombinant His-tagged p53 Y220C mutant DNA binding domain (94 to 312 residues) (unknown origin) assessed as induction of biotin-labeled consensus DNA binding by measuring […] concentration required to increase DNA binding incubated for 48 mins by TR-FRET assay. To be noted: filed as activator. For orientation: TR-FRET usually uses a lanthanide donor and a delayed reading to cut background.

For `COc1cc(S(C)(=O)=O)ccc1NCC#Cc1cc2c(N[C@@H]3CCN(C)C[C@@H]3F)cccc2n1CC(F)(F)F`, the EC150 amounted to 8 nM.
Turning to `COc1cc(S(C)(=O)=O)ccc1NCC#Cc1cc2c(N[C@H]3CCN(C)C[C@H]3F)cccc2n1CC(F)(F)F`, the EC150 was found to be 20 nM.
For the molecule `COc1cc(S(C)(=O)=O)ccc1NCC#Cc1cc2c(N[C@@H]3CCN(C)C[C@H]3F)cccc2n1CC(F)(F)F` (racemic), the EC150 is 20 nM.
With `COc1cc(S(C)(=O)=O)ccc1NCC#Cc1cc2c(N[C@@H]3CCN(C)C[C@@H]3F)cccc2n1CC(F)(F)F` (racemic), the EC150 was 9 nM.
